For data set [1], the target named is T1, KV7.2 (Homo sapiens, UniProt O43526).
T1 construct: expressed in transfected cells; host or cells: Xenopus laevis oocytes injected with cRNA (pGEM-HE vector)
Put plainly: Two-electrode voltage-clamp of KV7.2 expressed in Xenopus laevis oocytes. The data set is classed as cell-based. As for the experimental part:
Point mutations were introduced using mutated oligonucleotide extension (PfuTurbo Polymerase, Stratagene, La Jolla, CA, USA) from a plasmid template harboring the cDNA of interest, digested with DpnI (Fermentas, St. Leon-Roth, Germany) and transformed into E.coli XL1 Blue cells. The construct was verified by complete DNA sequencing of the cDNA insert. cRNA was prepared from linearized human wild-type (WT) and mutant KV7 channels in the pGEM-HE vector using the T7 m-Message Machine kit (Ambion, Austin, TX, USA) according to the manufacturer's instructions.
Extraction of Xenopus laevis oocytes and injection of cRNA was performed as described previously. Oocytes were kept in Modified Barth's Saline (in mM: 88 NaCl, 1 KCl, 2.4 NaHCO3, 0.41 CaCl2, 0.82 MgSO4, 0.3 Ca(NO3)2, 15 HEPES, pH 7.4 supplemented with 100 U/mL penicillin and 100 µg/mL streptomycin) at 18°C, and currents were recorded after 2-7 days. The care of Xenopus laevis and the oocyte extraction procedure were performed according to national guidelines and approved by the Danish Animal Experiments Inspectorate.
KV7 currents in Xenopus laevis oocytes were recorded using two-electrode voltage-clamp at room temperature in Ringer buffer (in mM: 115 NaCl, 2.5 KCl, 1.8 CaCl2, 0.1 MgCl2, 10 HEPES, pH 7.4) as described previously. Data was acquired using pCLAMP 10.2 software (Molecular Devices, CA, USA) and analyzed using pCLAMP 10.2 and GraphPad Prism 4.0 (GraphPad Software Inc., CA, USA). Currents were elicited from a holding potential of −80 mV by 5 s steps to potentials between −100 and +50 mV in 10 mV increments, followed by a 2 s step to −120 mV.
SMB-1 was dissolved in dimethyl sulfoxide (DMSO) to obtain a concentrated stock solution. On the day of experiments the stock solution was thawed and diluted in Ringer buffer to the final concentrations. A concentration of 10 µM SMB-1 was used unless indicated otherwise. The final DMSO concentration never exceeded 0.1%.
Current – voltage (I–V) relationship curves were generated by normalizing the steady-state peak current measured at potentials between −100 and +50 mV to the current measured at +50 mV in control recordings and plotting the values against the test potential.
The voltage-dependence of activation was determined from tail current analysis using the current measured immediately after the transient capacitive current after stepping to −120 mV from potentials between −100 mV and +50 mV. Data was normalized to extend from 0–1 and the tail current-voltage relationship was fitted to the Boltzmann equation: [drawing 1] (Equation\;1) where I max is the maximum tail current, I min is the minimum tail current, V0.5 is the potential for half maximal activation and k is the slope factor. A V0.5 was calculated for each individual experiment and statistical significance was estimated by paired two-tailed Student's t-test.
Activation kinetics for KV7.2 and KV7.2-W236L was determined by fitting the traces recorded at potentials between −40 and +40 mV to a double exponential function: [drawing 2] (Equation\;2) where I(t) is the current at time t, Ifast and Islow are the current amplitudes at infinite times, and τfast and τslow are the time constants of the fast and slow components, respectively.
For investigation of deactivation kinetics the tail current traces recorded at −120 mV when stepping from the channels' respective ∼V0.5 were fitted to a single exponential function (Eq. 3).
Dose-response curves from electrophysiological experiments were made by plotting the increase in steady state current at +50 mV expressed in percentages as a function of drug concentration. The data were then analyzed by non-linear regression and fitted to the equation for sigmoidal dose-response with variable slope: [drawing 4] (Equation\;4) where R1 is the initial response, R2 is the maximum response, X is the logarithm of the drug concentration and nH is the slope (Hill coefficient) of the curve.
On the technique in general: Two-electrode voltage clamp is typically applied to oocytes expressing channels or transporters.

Data set [2] in a line: Brain and plasma exposure in rats after subcutaneous administration. The settings on record: male, Sprague-Dawley, sc, rat, 20 mg/kg s.c.; for concentration at 30 min / concentration at 120 min: n = 3, mean ± S.E.M. It is filed as in vivo. The method, then:
Brain and plasma exposure of SMB-1 was evaluated in male Sprague-Dawley rats (225–250 g, Charles River Lab., UK). SMB-1 was administered subcutaneously in solution at a dose of 20 mg/kg in 25% solutol (dose volume 5 ml/kg) and exposure was assessed after 30 and 120 min (n = 3). Under isoflurane anesthesia, cardiac blood was obtained in EDTA-coated tubes and centrifuged for 10 min at 4°C, after which plasma was harvested. While still under anesthesia, the animal was decapitated, the brain was removed and brain homogenate was prepared by homogenizing the whole brain with 70% acetonitrile (1∶4 v/v) followed by centrifugation and collection of the supernatant. Concentrations of SMB-1 were determined using turboflow chromatography (dual column, focus mode; Thermo Fisher Scientific, Waltham, MA) followed by tandem mass spectrometry detection (Sciex API-3000 MS; Applied Biosystems, Foster City, CA). The limit of detection was 1 ng/ml in plasma and 5 ng/g in brain.

Setting [3] is: brain, read-out: Brain total concentration.
The mark [4] stands for this setting: plasma, read-out: Plasma total concentration.

“And” between values parts separate entries of the source, which are not always exact repeats. Equal entries are not always repeated. Where two headings read alike, the source gives them in different places.

T1 sequence (O43526 whole entry): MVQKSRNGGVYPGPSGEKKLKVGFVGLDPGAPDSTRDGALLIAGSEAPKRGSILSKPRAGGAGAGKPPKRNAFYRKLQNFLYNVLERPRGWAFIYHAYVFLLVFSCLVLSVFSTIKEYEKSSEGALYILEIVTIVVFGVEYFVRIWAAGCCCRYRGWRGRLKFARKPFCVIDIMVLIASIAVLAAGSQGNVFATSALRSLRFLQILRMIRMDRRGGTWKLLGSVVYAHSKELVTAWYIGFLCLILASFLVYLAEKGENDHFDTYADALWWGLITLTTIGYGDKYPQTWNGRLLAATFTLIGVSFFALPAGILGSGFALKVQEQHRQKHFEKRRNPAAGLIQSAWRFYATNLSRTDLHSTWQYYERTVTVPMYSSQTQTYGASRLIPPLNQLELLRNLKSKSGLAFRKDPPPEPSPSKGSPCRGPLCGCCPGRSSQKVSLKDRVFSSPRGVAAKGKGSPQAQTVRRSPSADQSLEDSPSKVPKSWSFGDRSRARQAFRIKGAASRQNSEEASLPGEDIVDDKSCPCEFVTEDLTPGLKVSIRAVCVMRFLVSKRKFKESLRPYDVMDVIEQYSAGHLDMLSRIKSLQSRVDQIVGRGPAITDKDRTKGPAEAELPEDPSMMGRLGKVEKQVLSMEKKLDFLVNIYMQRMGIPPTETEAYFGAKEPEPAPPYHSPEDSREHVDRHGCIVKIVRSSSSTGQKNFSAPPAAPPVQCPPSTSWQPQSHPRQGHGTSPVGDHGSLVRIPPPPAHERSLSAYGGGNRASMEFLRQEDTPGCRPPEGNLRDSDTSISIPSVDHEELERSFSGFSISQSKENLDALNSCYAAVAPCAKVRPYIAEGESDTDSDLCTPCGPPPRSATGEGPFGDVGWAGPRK

What is called IC50 is the concentration that gives 50% inhibition. A low value points to greater potency. Take `C[C@@H](c1ccc2c(c1)N(CC1CC1)CCO2)N(C)C(=O)/C=C/c1ccccc1F` [SMB-1, (E)-N-[(S)-1-(4-Cyclopropylmethyl-3,4-dihydro-2H-1,4-benzoxazin-6-yl)-ethyl]-3-(2-fluoro-phenyl)-N-methyl-acrylamide]: in data set [1] (10 µM), the “effect on τact_fast” value was “did not affect”. For the same molecule, the remaining activity at 10 µM in data set [1] (10 µM SMB-1, +50 mV, n = 9, read-out: current amplitude, % of control) turned out to be 81.7 ± 3.1%. The “effect on τact_slow” value in data set [1] (10 µM, at −20 mV and above) is recorded as “increased”. Besides, the “τdeact, deactivation time constant in presence of compound” value in data set [1] (10 µM, control 20.2±1.4 ms, n = 7, p<0.001) was determined as 37.3 ± 3.3 ms. Also, in data set [1] (10 µM, control −22.5±2.2 mV, n = 8, p<0.05), the “V0.5, voltage-dependence of activation in presence of compound” value is reported as -18.0±2.7 mV. Besides, in data set [1] (current amplitude at +50 mV, 0.4, 2, 10 and 50 µM, n = 5), the IC50 is ~7.4 µM and 7.4 µM. For the same molecule, in data set [2] (setting [3]), the concentration at 30 min is 0.55 ± 0.04 µM and the concentration at 120 min was 0.44 ± 0.07 µM. The Kp at 2 h in data set [2] (brain/plasma, 30 and 120 min, read-out: brain/plasma partition coefficient) was in the range of 0.04 to 0.07. In addition, in data set [2] (setting [4]), the concentration at 30 min turned out to be 14 ± 1.5 µM and the concentration at 120 min is 6.4 ± 0.7 µM.
